Here are results for 11 compounds from patent US11638713B2, “Patentiflorin A analogs as antiviral agents” (priority 2019, dated 2023).

Bounds are passed on as bounds.

One series deals with H5N1 virus. Put plainly: microbe, parasite or virus in culture. The series is classed as cell-based, H5N1 influenza virus. Particulars: for inhibition at 0.1 µg/mL / inhibition at 0.5 µg/mL / EC50 / inhibition at 0.01 µg/mL / inhibition at 0.05 µg/mL / inhibition at 0.0125 µg/mL / inhibition at 0.25 µg/mL / inhibition at 1 µg/mL / inhibition at 5 µg/mL: Influenza A virus; for inhibition at 0.1 µg/mL: H5N1, A549, 100 ng/mL; for inhibition at 0.1 µg/mL / inhibition at 0.5 µg/mL / inhibition at 0.01 µg/mL / inhibition at 0.05 µg/mL / inhibition at 0.0125 µg/mL / inhibition at 0.25 µg/mL / inhibition at 1 µg/mL / inhibition at 5 µg/mL: read-out: % Inhibition against H5N1 virus; for inhibition at 0.5 µg/mL: H5N1, A549, 500 ng/mL; for EC50: H5N1, A549, read-out: EC50 against H5N1 virus; for inhibition at 0.01 µg/mL: H5N1, A549, 10 ng/mL; for inhibition at 0.05 µg/mL: H5N1, A549, 50 ng/mL; for inhibition at 0.0125 µg/mL: H5N1, A549, 12.5 ng/mL; for inhibition at 0.25 µg/mL: H5N1, A549, 250 ng/mL; for inhibition at 1 µg/mL: H5N1, A549, 1000 ng/mL; for inhibition at 5 µg/mL: H5N1, A549, 5000 ng/mL.

A further series relates to EBOV (Ebola virus). As to the kind of experiment: microbe, parasite or virus in culture. Type of series: cell-based. Particulars: Zaire ebolavirus; for EC50: A549, read-out: EC50 against EBOV; for inhibition at 0.1 µg/mL: 100 ng/mL; for inhibition at 0.5 µg/mL: 500 ng/mL; for inhibition at 0.01 µg/mL: 10 ng/mL; for inhibition at 0.05 µg/mL: 50 ng/mL; for inhibition at 0.0125 µg/mL: 12.5 ng/mL.

The subject of series [1] is VSV (vesicular stomatitis virus). As to the kind of experiment: microbe, parasite or virus in culture. The settings on record: for inhibition at 0.1 µg/mL: A549, 100 ng/mL; for inhibition at 0.5 µg/mL: A549, 500 ng/mL; for EC50: A549, read-out: EC50 against VSV; for inhibition at 0.01 µg/mL: A549, 10 ng/mL; for inhibition at 0.05 µg/mL: A549, 50 ng/mL; for inhibition at 0.0125 µg/mL: A549, 12.5 ng/mL. Type of series: cell-based.

The next series relates to SARS-CoV-2. As to the kind of experiment: microbe, parasite or virus in culture. The series is classed as cell-based. Particulars: Severe acute respiratory syndrome coronavirus 2, HepG2, read-out: EC50 against SARS-CoV-2.
In a further series the test system is A549 cells. Put plainly: cells. The settings on record: Homo sapiens, A549, read-out: % Inhibition against A549 cells.
A short description of the next series: in vitro. The settings on record: human.
A further series concerns HIV. Put plainly: microbe, parasite or virus in culture. Type of series: cell-based. The settings on record: for EC50: Human immunodeficiency virus 1, A549.
[2] abbreviates: A549, read-out: % Inhibition against EBOV.
Setting [3] is: read-out: % Inhibition against VSV.
Setting [4] is: CC50 against the host cell line A549.

As a reminder, the inhibition is the drop in the measured response relative to a control, in per cent. The EC50 is the concentration that produces a half-maximal response. As for `COc1cc2c(OC3O[C@@H]4COC(C)(C)O[C@@H]4[C@H](O)[C@H]3O)c3c(c(-c4ccc5c(c4)OCO5)c2cc1OC)C(=O)OC3` (stereo partly drawn) [Compound 32c, 4″,6″-Acetonide-4-O-β-D-galactopyranosyldiphyllin], the inhibition at 0.1 µg/mL in the series with H5N1 virus was 65.1%; in the series on EBOV (Ebola virus) (setting [2]) it was 85.5%; in series [1] (setting [3]), 48.9%; with A549 cells, 2.9%. In addition, the inhibition at 0.5 µg/mL in the series on H5N1 virus worked out at 88.1%; with EBOV (Ebola virus) (setting [2]), 88.2%; in series [1] (setting [3]) it was 88.1%; in the series on A549 cells, 39.7%. Also, the EC50 with H5N1 virus turned out to be 5.2 nM; in the series with EBOV (Ebola virus) it was 20.3 nM; in series [1], 124 nM; in the series on SARS-CoV-2, 50.8 nM. In addition, the CC50 in “in vitro” (CC50 (nM)) worked out at 52.7 nM; in “in vitro” (setting [4]) it was 1040 nM.
For `COc1cc2c(OC3O[C@H](C)[C@@H](O)[C@H](O)[C@H]3O)c3c(c(-c4ccc5c(c4)OCO5)c2cc1OC)C(=O)OC3` (stereo partly shown) [Compound 26b, Patentiflorin A], the EC50 in the series with HIV was found to be 21.1 nM; with H5N1 virus it was 4.48 nM; with EBOV (Ebola virus), 54.8 nM; in series [1] it was 42.5 nM; with SARS-CoV-2 it was 67.2 nM. The CC50 in the series “in vitro” (CC50 (nM)) worked out at 347 nM; in the series “in vitro” (setting [4]), 386 nM.
Take `COc1cc2c(OC3O[C@H](CO)[C@H](O)[C@@H]4OC(C)(C)O[C@@H]34)c3c(c(-c4ccc5c(c4)OCO5)c2cc1OC)C(=O)OC3` (stereo partly drawn) [Compound 32d, 2″,3″-Acetonide-4-O-β-D-galactopyranosyldiphyllin]: the inhibition at 0.1 µg/mL in the series on H5N1 virus was 19.3%; with EBOV (Ebola virus) (setting [2]), 65.5%; in series [1] (setting [3]), 100%; in the series on A549 cells, -2%. The inhibition at 0.5 µg/mL was found to be 83.5% with H5N1 virus, 82.7% in the series with EBOV (Ebola virus) (setting [2]), 71.7% in series [1] (setting [3]) and 24.3% in the series with A549 cells. Moreover, the EC50 in the series with H5N1 virus was 200 nM; in the series on EBOV (Ebola virus), 396 nM; in series [1], 286 nM; in the series with SARS-CoV-2, 80.4 nM. Besides, the CC50 in “in vitro” (CC50 (nM)) stood at 52.7 nM; in “in vitro” (setting [4]) it was 1350 nM.
Turning to `COc1cc2c(OC3O[C@H](CO)[C@@H]4OC(C)(C)O[C@@H]4[C@H]3O)c3c(c(-c4ccc5c(c4)OCO5)c2cc1OC)C(=O)OC3` (stereo partly drawn) [Compound 32b, 3″, 4″-Acetonide-4-O-β-D-galactopyranosyldiphyllin], the inhibition at 0.01 µg/mL in the series with H5N1 virus turned out to be 91.7%; in the series with EBOV (Ebola virus) (setting [2]), 86.4%; in series [1] (setting [3]) it was 90.9%; in the series on A549 cells it was 40.5%. The inhibition at 0.05 µg/mL came to 88.1% with H5N1 virus, 92.7% with EBOV (Ebola virus) (setting [2]), 99.6% in series [1] (setting [3]) and 76% in the series with A549 cells. For the same compound, the EC50 in the series on H5N1 virus is 0.77 nM; with EBOV (Ebola virus), 0.85 nM; in series [1], 3.15 nM; in the series with SARS-CoV-2, 3.01 nM. The CC50 in the series “in vitro” (CC50 (nM)) was found to be 52.7 nM; in the series “in vitro” (setting [4]), 30.7 nM.
`COc1cc2c(OC3O[C@H](C)[C@@H](O)[C@H](OC(=O)c4ccc(N(C)C)cc4)[C@H]3O)c3c(c(-c4ccc5c(c4)OCO5)c2cc1OC)C(=O)OC3` (stereo partly drawn) [Compound 31e, 3″-O-p-dimethylaminobenzoyl-7-O-β-D-patentiflorin A]: the EC50 in the series with HIV was 2.41 nM; in the series on H5N1 virus it was 0.74 nM; with EBOV (Ebola virus), 1.13 nM; in series [1], 2.41 nM. Moreover, the “% Inhibition against H5N1 virus” value in the series on H5N1 virus (12.5 ng/mL) is 95.4%; with H5N1 virus (50 ng/mL), 96.5%. Moreover, the inhibition at 0.0125 µg/mL worked out at 98.1% with H5N1 virus, 77.5% in the series on EBOV (Ebola virus) (setting [2]), 77.4% in series [1] (setting [3]) and 53.1% in the series with A549 cells. In addition, the inhibition at 0.05 µg/mL with H5N1 virus stood at 97.9%; with EBOV (Ebola virus) (setting [2]), 86.5%; in series [1] (setting [3]) it was 86.3%; in the series with A549 cells, 66.8%. Besides, the inhibition at 0.25 µg/mL in the series on H5N1 virus came to 98.4%. The CC50 in the series “in vitro” (CC50 (nM)) and in “in vitro” (setting [4]) was 17.7 nM throughout.
On to `COc1cc2c(O)c3c(c(-c4ccc5c(c4)OCO5)c2cc1OC)C(=O)OC3` [Compound 5, diphyllin], for which the figures for the EC50 in the series with HIV and in the series on SARS-CoV-2 were 37.1 nM and 150 nM, respectively. Further, the CC50 in “in vitro” (CC50 (nM)) was determined as 3610 nM.
For `COc1cc2c(OC3OC[C@@H](O)[C@H](OC(=O)N(C)C)[C@H]3O)c3c(c(-c4ccc5c(c4)OCO5)c2cc1OC)C(=O)OC3` (stereo partly drawn) [Compound 31a, 3″-O-dimethylcarbamyl-7-O-β-D-xylosyldiphyllin], the inhibition at 0.0125 µg/mL in the series on H5N1 virus is 87.9%. The inhibition at 0.05 µg/mL in the series with H5N1 virus is 94.4%. In the series with H5N1 virus, the inhibition at 0.25 µg/mL came out at 97.6%. Moreover, the inhibition at 1 µg/mL with H5N1 virus was 94.7%; in the series on EBOV (Ebola virus) (A549, 1000 ng/mL, read-out: % Inhibition against EBOV) it was 81.8%; in series [1] (A549, 1000 ng/mL, read-out: % Inhibition against VSV), 80.4%; in the series on A549 cells it was 47.5%. The inhibition at 5 µg/mL came to 98.4% in the series with H5N1 virus; 95.2% in the series with EBOV (Ebola virus) (A549, 5000 ng/mL, read-out: % Inhibition against EBOV); 99.6% in series [1] (A549, 5000 ng/mL, read-out: % Inhibition against VSV); 99.8% with A549 cells. The compound also showed a CC50 in “in vitro” (CC50 (nM)) of 55.8 nM.
Take `COc1cc2c(OC3O[C@H](C)[C@H](O)[C@H](O)[C@H]3O)c3c(c(-c4ccc5c(c4)OCO5)c2cc1OC)C(=O)OC3` (stereo partly drawn) [Compound 26e, 7-O-β-D-fucopyranosyldiphyllin]: in the series with HIV (at 9496.9 nM), the “anti-HIV activity (inhibition)” value is “no inhibition”. In addition, in the series on H5N1 virus, the inhibition at 1 µg/mL turned out to be 48.5% and the inhibition at 5 µg/mL came to 88.9%. Further, the EC50 with SARS-CoV-2 was 30.4 nM. Besides, the CC50 in the series “in vitro” (CC50 (nM)) is more than 9500 nM.
Consider `C=CCOC(=O)O[C@@H]1COC(Oc2c3c(c(-c4ccc5c(c4)OCO5)c4cc(OC)c(OC)cc24)C(=O)OC3)[C@H](O)[C@H]1OC(C)=O` (stereo partly drawn) [Compound 28ab1, 4″-O-allyl oxycarbonyl-3″-acetyl-7-O-β-D-xylosyldiphyllin], for which the inhibition at 0.0125 µg/mL in the series with H5N1 virus came out at 91.8%; in the series on EBOV (Ebola virus) (setting [2]), 81%; in series [1] (setting [3]), 85.9%; in the series with A549 cells, 35.5%. Also, the inhibition at 0.05 µg/mL turned out to be 86% in the series with H5N1 virus, 82.4% with EBOV (Ebola virus) (setting [2]), 83.5% in series [1] (setting [3]) and 40.9% in the series with A549 cells. Further, the EC50 stood at 5.05 nM in the series with H5N1 virus, 18.9 nM in the series on EBOV (Ebola virus), 3.78 nM in series [1] and 26.3 nM with SARS-CoV-2. For the same compound, the CC50 in the series “in vitro” (CC50 (nM)) came out at 513 nM; in “in vitro” (setting [4]), 190 nM.
For `COc1cc2c(OC3O[C@H](CO)[C@H]4OC(C)(C)O[C@@H]4[C@H]3O)c3c(c(-c4ccc5c(c4)OCO5)c2cc1OC)C(=O)OC3` (stereo partly drawn) [Compound 32a, 3″, 4″-Acetonide-4-O-β-D-glucopyranosyldiphyllin], the EC50 in the series on H5N1 virus came out at 0.63 nM; in the series with EBOV (Ebola virus), 1.2 nM; in series [1], 18.1 nM; in the series on SARS-CoV-2, 2.95 nM. Also, the CC50 was determined as 52.7 nM in the series “in vitro” (CC50 (nM)) and 61.6 nM in “in vitro” (setting [4]).
As for `COc1cc2c(OC3O[C@H](C)[C@@H](O)[C@H](OC(=O)C4CC4)[C@H]3O)c3c(c(-c4ccc5c(c4)OCO5)c2cc1OC)C(=O)OC3` (stereo partly drawn) [Compound 31g, 3″-O-cyclopropanecarbonyl-7-O-4i-D-patentiflorin A], the “% Inhibition against H5N1 virus” value with H5N1 virus (50 ng/mL) was 89.0%. Moreover, in the series on H5N1 virus, the inhibition at 0.01 µg/mL came to 78.9%, the inhibition at 0.0125 µg/mL was found to be 97.9%, the inhibition at 0.05 µg/mL was 97.9% and the inhibition at 0.25 µg/mL amounted to 98.1%. Moreover, in the series with EBOV (Ebola virus) (setting [2]), the inhibition at 0.01 µg/mL was 79.1% and the inhibition at 0.05 µg/mL amounted to 90.9%. For the same compound, in series [1] (setting [3]), the inhibition at 0.01 µg/mL was 63.3% and the inhibition at 0.05 µg/mL was found to be 95.7%. Further, in the series with A549 cells, the inhibition at 0.01 µg/mL turned out to be 11% and the inhibition at 0.05 µg/mL amounted to 54.6%. The CC50 in the series “in vitro” (CC50 (nM)) was 26.7 nM.
